From US5321030A, “Creatine analogs having antiviral activity” (priority 1991, dated 1994)

Assays:
HSV-1 = test: Cytopathic effect (CPE) assay, HSV-1; settings: for effect on percent monolayer cell death, second set of experiments: 0-200 PFU, series of concentrations; for protective effect: no agar overlay, highest concentrations tested
[1] = Drug cytotoxicity in CPE assay (monolayer death in absence of virus); settings: monkey, vero cells
creatine kinase [2] = molecular target: T1, creatine kinase (Oryctolagus cuniculus, UniProt P00563); settings: cited from earlier work
[3] = test system: Guinea Pig Cytomegalovirus, Strain 22122; test: CPE reduction assay, guinea pig cytomegalovirus in GPE cells; format: cell-based; settings: 12.5 mg/ml
[4] = test system: Varicella-Zoster Virus, strain Oka; test: microbe, parasite or virus in culture; format: cell-based; settings: Human alphaherpesvirus 3, MRC5, read-out: plaque reduction
[5] = test system: Pseudorabies virus, Aujeszky strain; format: cell-based; settings: similar assay
[6] = test system: Vesicular stomatitis virus (VSV), Indiana strain; format: cell-based; settings: tested in parallel
creatine kinase [7] = molecular target: T1, creatine kinase; test: Phosphorylation by creatine kinase, coupled assay with pyruvate kinase and LDH; format: biochemical; settings: 40 mM
Experimental: Compound 5/6 (AM 361), where R=CH3, was prepared as described above and assayed for phosphorylation by creatine kinase in a coupled assay with pyruvate kinase and lactate dehydrogenase (LDH) as described (Bergmeyer, H. U., ed. (1974), In: Methods of Enzymatic Analysis, Second English Edition, Volume 4, (Verlag Chemie Weinheim and Academic Press, Inc.: New York, London) pp. 1772-1779). Each compound listed in Table 11 below was tested at a concentration of 40 mM. Compound 5/6 (AM 361) was slowly phosphorylated.

T1 sequence (P00563 whole entry): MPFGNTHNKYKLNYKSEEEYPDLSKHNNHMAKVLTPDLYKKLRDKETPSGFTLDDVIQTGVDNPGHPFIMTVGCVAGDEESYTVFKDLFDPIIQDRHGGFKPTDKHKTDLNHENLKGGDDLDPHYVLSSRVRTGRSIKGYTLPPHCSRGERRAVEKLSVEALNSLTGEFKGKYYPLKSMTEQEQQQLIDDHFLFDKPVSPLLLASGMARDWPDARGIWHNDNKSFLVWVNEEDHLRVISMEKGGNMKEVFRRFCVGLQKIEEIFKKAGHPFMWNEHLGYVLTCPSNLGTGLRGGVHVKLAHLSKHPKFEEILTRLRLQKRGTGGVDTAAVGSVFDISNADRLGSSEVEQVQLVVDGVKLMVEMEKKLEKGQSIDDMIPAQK

Compound: C=CCN=C1NCCN1CC(=O)O [Compound 10b]
- antiviral effect (HSV-1; 2.58-45.90 mM, Vero cells, 12-200 PFU/well): No consistent antiviral effect
- cytotoxicity at 23000 µM [1]: 7%
- cytotoxicity at 45900 µM [1]: 30%

Compound: CC(CC(=O)O)C(=N)N (stereo not shown) [carbocreatine, 3-amidinobutyric acid, reference compound]
- effect on percent monolayer cell death, second set of experiments (HSV-1; Vero cells): no dose-response or consistent protective effect
- protective effect (HSV-1; Vero cells, 125 PFUs): weak protective effect in some wells

Compound: CN(CC(=O)O)C(=N)NP(=O)(O)O [P-creatine, N-phosphorocreatine, reference compound]
- Km (creatine kinase [2]; reverse reaction, without cyclocreatine, read-out: Km of P-creatine): 1800 µM

Compound: N=C1NCCN1CCC(=O)O [homocyclocreatine, 1-carboxyethyl-2-iminoimidazolidine, reference compound]
- Ave. CPE [3]: 3.7
- inhibition at 1000 µg/mL [4]: 36%
- inhibition at 2000 µg/mL [4]: 39%
- inhibition at 4000 µg/mL [4]: 50%

Compound: Nc1ncnc2c1ncn2[C@@H]1O[C@H](CO)[C@@H](O)[C@@H]1O [adenine arabinoside]
- effect against Pseudorabies virus [5]: ineffective

Compound: isoepoxycreatine [reference compound]
- inactivation of creatine kinase (creatine kinase [2]; affinity reagent): completely and irreversibly inactivate creatine kinase

Compound: Nc1nccn1CC(=O)O [1-carboxymethyl-2-aminoimidazole, reference compound]
- binding to creatine kinase (creatine kinase [2]): an affinity equal to that of cyclocreatine
- initial rate of phosphorylation by creatine kinase, slower (creatine kinase [2]): 5 orders of magnitude
- dose response against cytopathogenicity (HSV-1; Vero cells, 0.31-5.0 mg/ml, FIG. 16): shows no such effect

Compound: CCN(CC(=O)O)C(=N)N [EGA, N-ethyl-N-amidinoglycine, reference compound]
- effect on percent monolayer cell death, second set of experiments (HSV-1; Vero cells): no dose-response or consistent protective effect
- protective effect (HSV-1; Vero cells, 125 PFUs): weak protective effect in some wells

Compound: N=C1NCCCN1CC(=O)O [1-carboxymethyl-2-iminohexahydropyrimidine, reference compound]
- effect on percent monolayer cell death, second set of experiments (HSV-1; Vero cells): no dose-response or consistent protective effect
- protective effect (HSV-1; Vero cells, 125 PFUs): weak protective effect in some wells

Compound: CN=C1NCCN1CC(=O)O [Compound 10a]
- effect on monolayer death (HSV-1; 19.1 mM, 12, 50, 100 or 200 PFU/well, not 25 PFU/well): a reduction in monolayer death
- cytotoxicity at 38200 µM [1]: 5%

Compound: N=C(N)NCCC(=O)O [β-guanidinopropionate, β-guanidinopropionic acid, reference compound]
- effect on percent monolayer cell death, second set of experiments (HSV-1; Vero cells): no dose-response or consistent protective effect
- protective effect (HSV-1; Vero cells, 125 PFUs): weak protective effect in some wells

Compound: N=C1NCC(=O)N1CC(=O)O [Compound 7]
- antiviral activity (HSV-1; 41.7 mM, Vero cells, 12-200 PFU/well): consistent antiviral activity
- cytotoxicity at 41700 µM [1]: 4%

Compound: NC(=O)c1ncn([C@@H]2O[C@H](CO)[C@@H](O)[C@H]2O)n1 [Ribavirin, reference compound]
- effect on the virus [6]: only a moderate effect

Compound: 1-carboxymethyl-2-iminomethylimidazolidine [AM 361]
- % Rate of Creatine (creatine kinase [7]): 2.4%
- Δ in Absorbance/min (creatine kinase [7]): 0.041
- effect on cytopathic effect (HSV-1; 22.1 mM, Vero cells): reduced the cytopathic effect as compared with the no drug control in wells inoculated with 25 or 50 PFU/well
- virus-induced monolayer death (HSV-1; 44.2 mM, Vero cells, each inoculum 12-200 PFU/well (no drug control 30-90%)): 2%
- effect on cytopathic effect (HSV-1; 18.2-72.7 mM, serum-starved Vero cells, FIG. 17A): inhibited the cytopathic effect

Compound: CN(CC(=O)O)C(=N)N [creatine]
- % Rate of Creatine (creatine kinase [7]): 100%
- Δ in Absorbance/min (creatine kinase [7]): 1.18
- activity (HSV-1; 70 mM, Vero cells, 125 PFUs): some activity
